Laboratory results from PubChem BioAssay AID1508612.

Experiment: passive permeability, PAMPA, ADME assay (AID 1508612)
Conditions: pH 7.4, 30.0 min, 50.0 µM
Molecule `Cc1cc(-c2nnc3n2CCCCC3)c(C)n1-c1ccncc1` has a Papp of 24.5 ×10⁻⁶ cm/s.
In the case of `Cc1ccc2oc(NC3=NC4(CCCC4)C4=C(CCCC4=O)N3)nc2c1`, the Papp was 543 ×10⁻⁶ cm/s.
In the case of `NC(=O)C1CCN(c2nc(-c3ccccc3F)cs2)CC1`, the Papp was 558 ×10⁻⁶ cm/s.
Molecule `COc1ccc(Cn2c(C(=O)O)c(CNCc3ccco3)c3ccc(C)cc32)cc1` has a Papp of 654 ×10⁻⁶ cm/s.
`CSc1ncc(Cl)c(C(=O)Nc2c(C)cccc2C)n1` gave a Papp of 508 ×10⁻⁶ cm/s.
`Cc1cccc(S(=O)(=O)c2cn(Cc3ccccc3)c3cc(N4CCCC(C)C4)c(F)cc3c2=O)c1` (stereo not drawn) gave a Papp of over 1000 ×10⁻⁶ cm/s.
With `CCOc1cc(CNc2ccc(O)cc2)ccc1OCc1ccc(Cl)cc1` the Papp was under 1 ×10⁻⁶ cm/s.
In the case of `CN(C)C(=O)c1ccc(-c2cc[nH]c(=O)c2N)cc1`, the Papp was 12.1 ×10⁻⁶ cm/s.
`Cc1ccccc1C(C(=O)NC1CCCC1)N(C(=O)Cn1cnc2ccccc21)c1cccc(F)c1` (stereo not drawn) gave a Papp of over 1000 ×10⁻⁶ cm/s.
Molecule `COc1ccccc1CNS(=O)(=O)c1ccc(-c2cnc(C3CC3)o2)cc1` has a Papp of over 1000 ×10⁻⁶ cm/s.
Molecule `COc1ccnc(NC(=S)N2CCN(c3cc(C(F)(F)F)cc(C(F)(F)F)c3)CC2)c1` has a Papp of 373 ×10⁻⁶ cm/s.
`CCCCn1cnc2cc(NCc3ccc(OCC)cc3)ccc21` showed a Papp of over 1000 ×10⁻⁶ cm/s.
`Cc1ccc(-c2cc(C(=O)Nc3ccc(-n4cncn4)cc3)c3ccccc3n2)cc1C` showed a Papp of under 1 ×10⁻⁶ cm/s.
With `COc1ccc(-c2nc3ccccc3c(=O)n2Cc2ccccc2)cc1COc1ccc(NC(C)=O)cc1` the Papp was over 1000 ×10⁻⁶ cm/s.
`O=C(Nc1nc2cc(C(F)(F)F)cc(NC3CC3)n2n1)c1cccnc1` showed a Papp of 197 ×10⁻⁶ cm/s.
For `Cc1cc(C)nc(NC(=S)N2CCN(c3cccc(C(F)(F)F)c3)CC2)c1`, the Papp was 593 ×10⁻⁶ cm/s.
Molecule `CCN(CC)C(=O)c1coc(COc2ccc3c(c2)C(c2cccc(F)c2)N(C(=O)C(C)C)CC3)n1` (stereo not drawn) has a Papp of over 1000 ×10⁻⁶ cm/s.
For `Cc1ccc2nc(-c3ccccn3)c(Nc3ccccc3C)n2c1`, the Papp was over 1000 ×10⁻⁶ cm/s.
With `CCc1ccc(CNc2ccc3c(c2)ncn3C(C)(C)C)cc1` the Papp was over 1000 ×10⁻⁶ cm/s.
`Cc1ccc(-n2nc3c(=O)n(CCCC(=O)NCc4ccccc4F)nc(C)c3c2C)cc1` gave a Papp of 920 ×10⁻⁶ cm/s.
Work on `Cc1sc2c(c1C)C(c1ccc(Cl)cc1)=N[C@@H](CC(=O)Nc1ccc(OCCOCCOCCOCCNc3cccc4c3C(=O)N(C3CCC(=O)NC3=O)C4=O)cc1)c1nnc(C)n1-2` (stereo partly drawn) yielded a Papp of 4.9 ×10⁻⁶ cm/s.
In the case of `Oc1ccc(CNc2ccccc2Br)c2cccnc12`, the Papp was under 1 ×10⁻⁶ cm/s.
`Cc1ccc(C2=NN=C(NC(=O)CSc3nncn3C)SC2)cc1` gave a Papp of 147 ×10⁻⁶ cm/s.
Molecule `Cc1ccc(S(=O)(=O)Nc2cc3c(cc2C(=O)Nc2nc(-c4ccccc4)cs2)OCO3)cc1` has a Papp of 19.3 ×10⁻⁶ cm/s.
For `COc1cccc(CNc2ccc([S+](=O)([O-])Nc3cc4ccccc4s3)cc2)c1O`, the Papp was 888 ×10⁻⁶ cm/s.
Work on `COc1cc2nccc(Oc3ccc(NC(=O)C4(C(=O)Nc5ccc(F)cc5)CC4)cc3)c2cc1OC` yielded a Papp of 507 ×10⁻⁶ cm/s.
For `c1ccc2c(Nc3nccs3)nc(-c3ccncc3)nc2c1`, the Papp was 150 ×10⁻⁶ cm/s.
In the case of `COc1c(O)ccc2c1CN1CCc3cc4c(cc3[C@@H]1C2)OCO4`, the Papp was over 1000 ×10⁻⁶ cm/s.
In the case of `CNc1oc(-c2cccc(Cl)c2Cl)nc1C#N`, the Papp was 505 ×10⁻⁶ cm/s.
`CC(C)(O)/C=C\C(=O)[C@](C)(O)[C@H]1[C@H](O)C[C@]2(C)[C@@H]3CC=C4[C@@H](C=C(O)C(=O)C4(C)C)[C@]3(C)C(=O)C[C@@]12C` gave a Papp of 184 ×10⁻⁶ cm/s.
`Cc1noc(C)c1-c1cc(-c2ccc3c(c2)C(=O)NC3)cn2cncc12` gave a Papp of 143 ×10⁻⁶ cm/s.
In the case of `O=C1c2ccccc2C2=Nc3ccccc3SC(c3ccc(Cl)cc3)C12` (stereo not drawn), the Papp was under 1 ×10⁻⁶ cm/s.
In the case of `COc1cccc(NC(=O)c2cccc3c(=O)c4c([nH]c23)CCCC4)c1`, the Papp was over 1000 ×10⁻⁶ cm/s.
`CC1CCc2ccc(F)cc2N1S(=O)(=O)c1cccs1` (stereo not drawn) showed a Papp of 795 ×10⁻⁶ cm/s.
With `Cc1ccc2nc(-c3cc(NC(=O)c4ccc5c(c4)OCCO5)ccc3Cl)oc2c1` the Papp was 144 ×10⁻⁶ cm/s.
Molecule `COc1ccc(-c2nc(N3CCOCC3)c3sc(CN(C)c4ncc(C(=O)NO)cn4)cc3n2)cn1` has a Papp of 496 ×10⁻⁶ cm/s.
Work on `O=C(Nc1nc(-c2ccccc2)cs1)c1ccncc1NS(=O)(=O)c1ccccc1F` yielded a Papp of 468 ×10⁻⁶ cm/s.
`CCCC1=Nc2cc(C(=O)NC3CCCCC3)ccc2Sc2ccc(C)cc21` showed a Papp of 17.1 ×10⁻⁶ cm/s.
Molecule `O=C(Nc1ccc(S(=O)(=O)Nc2nccs2)cc1)c1ccc2ccccc2c1` has a Papp of 4.69 ×10⁻⁶ cm/s.
With `O=C(Cc1ccc(Cl)c(Cl)c1)Nc1ccc(S(=O)(=O)Nc2nncs2)cc1` the Papp was 1.5 ×10⁻⁶ cm/s.
Work on `COc1ccc(O)c2c(=O)c3c(OC)cc4c(c3oc12)C1C=COC1O4` (stereo not drawn) yielded a Papp of 890 ×10⁻⁶ cm/s.
For `O=C(Nc1ncc(Cc2ccc(C(F)(F)F)cc2)s1)c1cnc(-c2ccccc2)[nH]1`, the Papp was under 1 ×10⁻⁶ cm/s.
Molecule `CC(=O)Nc1ccc(-c2csc(N3CCC(C(N)=O)CC3)n2)cc1` has a Papp of under 1 ×10⁻⁶ cm/s.
For `CN(C)CCOc1ccc(C(=C(CCCl)c2ccccc2)c2ccccc2)cc1`, the Papp was under 1 ×10⁻⁶ cm/s.
Work on `COc1cc2c(Oc3ccc(-c4cnc(Nc5ccc(F)cc5)n(C)c4=O)cc3F)ccnc2cc1OCCCN1CCOCC1` yielded a Papp of 92.9 ×10⁻⁶ cm/s.
`COc1cc2ncnc(Oc3cccc(NC(=O)Nc4cc(C(C)(C)C(F)(F)F)on4)c3)c2cc1OC` gave a Papp of 36.1 ×10⁻⁶ cm/s.
With `Cc1ccc(S(=O)(=O)Nc2cnccc2C(=O)Nc2nc(-c3ccccc3Cl)cs2)cc1` the Papp was 46 ×10⁻⁶ cm/s.
Work on `COc1cccc(CN2CCCC(c3nc(-c4ccncc4)ncc3-c3ccccc3)C2)c1O` (stereo not drawn) yielded a Papp of over 1000 ×10⁻⁶ cm/s.
In the case of `O=C(NC1CCCc2c1cnn2-c1ccc(F)cc1F)c1ccccc1` (stereo not drawn), the Papp was over 1000 ×10⁻⁶ cm/s.
`COC(=O)Nc1nc2ccc(Sc3ccccc3)cc2[nH]1` gave a Papp of 197 ×10⁻⁶ cm/s.
`COc1cccc(C(=O)Nc2ccc([S+](=O)([O-])Nc3nccs3)cc2)c1O` gave a Papp of 3.5 ×10⁻⁶ cm/s.
For `O=C1c2ccccc2C2=Nc3ccccc3SC(c3ccccc3F)C12` (stereo not drawn), the Papp was under 1 ×10⁻⁶ cm/s.
For `CCCCn1cnc2cc(NC(=O)c3cc(OC)c(OC)c(OC)c3)ccc21`, the Papp was 693 ×10⁻⁶ cm/s.
